# Laboratory results from paper PMC9970836 (Biomolecules & Therapeutics, 2022).
# Molecular target: 5-HT2AR (Homo sapiens, UniProt P28223)
# Test: 5-HT2AR radioligand binding assay
# 5-HT2AR, sequence (P28223 whole entry): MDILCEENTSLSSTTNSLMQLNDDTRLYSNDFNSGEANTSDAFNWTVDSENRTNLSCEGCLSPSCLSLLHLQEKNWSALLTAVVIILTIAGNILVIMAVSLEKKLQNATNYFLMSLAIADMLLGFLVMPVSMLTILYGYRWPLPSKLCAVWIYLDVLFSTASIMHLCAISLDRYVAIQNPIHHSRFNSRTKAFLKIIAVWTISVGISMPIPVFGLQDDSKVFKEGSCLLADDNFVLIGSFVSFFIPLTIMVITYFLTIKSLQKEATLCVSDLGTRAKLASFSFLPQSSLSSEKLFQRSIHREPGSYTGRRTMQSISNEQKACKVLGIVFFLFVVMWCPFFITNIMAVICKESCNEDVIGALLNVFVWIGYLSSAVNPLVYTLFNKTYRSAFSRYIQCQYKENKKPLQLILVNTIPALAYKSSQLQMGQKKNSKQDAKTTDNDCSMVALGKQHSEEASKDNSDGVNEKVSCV
row,Compound,Ki
1,"CCCc1cc(OC)c(CCN)cc1OC [Compd 1, 2,5-dimethoxy-4-propyl-benzeneethanamine]",3.47 nM
2,"COc1cc([N+](=O)[O-])c(OC)cc1CCN [Compd 2, 2,5-Dimethoxy-4-nitrophenethylamine]",25.2 nM
3,"COc1cc(CCNCc2ccccc2OC)c(OC)cc1C [Compd 6, 2-(2,5-dimethoxy-4-methylphenyl)-N-(2-methoxybenzyl)ethanamine]",2.88 nM
4,"CCc1cc(OC)c(CCNCc2ccccc2OC)cc1OC [Compd 7, 2-(4-ethyl-2,5-dimethoxyphenyl)-N-(2-methoxybenzyl)ethan-1-amine]",1.52 nM
5,"COc1cc(CCNCc2ccccc2OC)c(OC)cc1Cl [Compd 8, 2-(4-chloro-2,5-dimethoxyphenyl)-N-(2-methoxybenzyl)ethanamine]",0.817 nM
6,"COc1cc(CCNCc2ccccc2F)c(OC)cc1Cl [Compd 11, 4-chloro-N-[(2-fluorophenyl)methyl]-2,5-dimethoxy-benzeneethanamine]",10.8 nM
7,"COc1cc(CCNCc2ccccc2F)c(OC)cc1Br [Compd 12, 4-bromo-N-[(2-fluorophenyl)methyl]-2,5-dimethoxy-benzeneethanamine]",3.63 nM
8,"CCN(CC)CCc1c[nH]c2cccc(OC(C)=O)c12 [Compd 18, 4-Acetoxy-N,N-diethyltryptamine]",595 nM
9,"CCCN(CC)CCc1c[nH]c2ccc(OC)cc12 [Compd 20, 5-methoxy -N-ethyl-N-propyl tryptamine]",122 nM
10,"C=CCN(CC=C)CCc1c[nH]c2ccc(OC)cc12 [Compd 25, N-allyl-N-[2-(5-methoxy-1H-indol-3-yl)ethyl] prop-2-en-1-amine]",258 nM
